ChEMBL document CHEMBL1201862, “PubChem BioAssay data set” (2004)
The source made the active and inactive calls.

Columns and labels:
[1] = molecular target: Luciferin 4-monooxygenase (Photinus pyralis, UniProt P08659); experiment: inhibition of purified Photinus pyralis luciferase – biochemical, luminescence, dose response (AID 1891)
[2] = Luminescence Cell-Based Dose Confirmation HTS to Identify Inhibitors of Platelet Dense Granule Release. [Related pubchem assays: 1663 (Primary HTS), 1678 (Summary of Project)]; format: functional
[3] = molecular target: T1, Galanin receptor type 3 (Homo sapiens, UniProt O60755); experiment: Fluorescence-based cell-based primary high throughput dose response assay to identify antagonists of the Galanin Receptor 3 (GalR3).; format: functional
T1 sequence (O60755 whole entry): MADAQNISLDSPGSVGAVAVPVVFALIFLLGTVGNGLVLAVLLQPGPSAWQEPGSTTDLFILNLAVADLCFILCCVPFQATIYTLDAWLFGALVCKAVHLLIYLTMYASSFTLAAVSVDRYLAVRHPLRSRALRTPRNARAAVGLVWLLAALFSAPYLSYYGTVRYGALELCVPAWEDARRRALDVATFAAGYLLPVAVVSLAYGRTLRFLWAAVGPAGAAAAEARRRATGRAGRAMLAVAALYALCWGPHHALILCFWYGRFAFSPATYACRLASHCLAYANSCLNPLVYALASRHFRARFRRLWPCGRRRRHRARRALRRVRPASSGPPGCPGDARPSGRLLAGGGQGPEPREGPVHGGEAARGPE

[4] = cells; format: functional, cell-based; conditions: HEK-CNG
[5] = NIH-3T3 fibroblast cytotoxicity, dose response, cytotoxicity control, cell-based, fluorescence, Alamar Blue, secondary assay (AID 2327); format: functional;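 note: NIH-3T3 mouse fibroblasts cultured with fluconazole at 8 µg/mL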
[6] = Trypanosoma cruzi growth suppression in host cells – NIH3T3 host cells, beta-gal luminescence, confirmation (AID 2044); format: functional, cell-based;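 note: intracellular parasites grown in NIH/3T3 mouse fibroblasts as host cells; luminescent beta-galactosidase reporter signal from transgenic T. cruzi replicating inside host cells; inhibitors lower the luminescence signal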
[7] = toxicity toward HepG2 liver cells – cell-based, plate reader, cherry-pick, antagonist series, cytotoxicity control, dose response (AID 743416); format: functional
[8] = viability loss in HEK293 cells – cell-based, plate reader, cherry-picked samples, cytotoxicity control, dose response (AID 743446); format: functional
[9] = cells; format: functional
[10] = THP-1 cell cytotoxicity, dose response, cytotoxicity control for non-replicating M. tuberculosis project (AID 489025); format: functional
[11] = molecular target: T2, Heat shock factor protein 1 (Mus musculus, UniProt P38532); experiment: enhancement of HSF1-driven luciferase signal – cell-based, NIH3T3, luminescence, dose retest, confirmation (AID 435004); format: functional;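 note: stress induced by proteasome inhibitor MG132 added 30 min after compound; luciferase reporter driven by HSF1 response element in NIH3T3 cells; actives raise luminescence as potentiators of the MG132 stress response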
T2 sequence (P38532 whole entry): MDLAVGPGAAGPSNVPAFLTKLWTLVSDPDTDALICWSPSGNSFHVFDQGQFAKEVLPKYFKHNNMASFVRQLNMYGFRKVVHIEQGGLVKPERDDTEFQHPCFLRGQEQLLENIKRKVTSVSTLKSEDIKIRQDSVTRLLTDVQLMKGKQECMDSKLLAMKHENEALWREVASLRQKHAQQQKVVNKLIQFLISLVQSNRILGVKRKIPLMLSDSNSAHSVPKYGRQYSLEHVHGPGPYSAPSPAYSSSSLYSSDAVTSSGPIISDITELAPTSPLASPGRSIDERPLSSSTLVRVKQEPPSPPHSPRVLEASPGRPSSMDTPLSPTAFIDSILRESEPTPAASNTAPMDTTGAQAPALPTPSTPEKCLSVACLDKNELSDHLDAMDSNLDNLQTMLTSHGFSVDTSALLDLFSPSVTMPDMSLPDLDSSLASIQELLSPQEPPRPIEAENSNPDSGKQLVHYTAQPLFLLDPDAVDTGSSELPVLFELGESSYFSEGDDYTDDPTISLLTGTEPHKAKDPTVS

[12] = fluconazole-exposed Candida albicans growth modulators – fluorescence, retest, confirmation (AID 2467); format: functional, cell-based
[13] = molecular target: T3, Protein RecA (Mycobacterium tuberculosis, UniProt P9WHJ3); experiment: Fluorescence Cell-Free Homogeneous Dose Retest to Identify Inhibitors of RecA-Intein Splicing Activity. [Related pubchem assays (depositor defined):AID2097, AID2223, AID489010, AID492950]; format: functional
T3 sequence (P9WHJ3 whole entry): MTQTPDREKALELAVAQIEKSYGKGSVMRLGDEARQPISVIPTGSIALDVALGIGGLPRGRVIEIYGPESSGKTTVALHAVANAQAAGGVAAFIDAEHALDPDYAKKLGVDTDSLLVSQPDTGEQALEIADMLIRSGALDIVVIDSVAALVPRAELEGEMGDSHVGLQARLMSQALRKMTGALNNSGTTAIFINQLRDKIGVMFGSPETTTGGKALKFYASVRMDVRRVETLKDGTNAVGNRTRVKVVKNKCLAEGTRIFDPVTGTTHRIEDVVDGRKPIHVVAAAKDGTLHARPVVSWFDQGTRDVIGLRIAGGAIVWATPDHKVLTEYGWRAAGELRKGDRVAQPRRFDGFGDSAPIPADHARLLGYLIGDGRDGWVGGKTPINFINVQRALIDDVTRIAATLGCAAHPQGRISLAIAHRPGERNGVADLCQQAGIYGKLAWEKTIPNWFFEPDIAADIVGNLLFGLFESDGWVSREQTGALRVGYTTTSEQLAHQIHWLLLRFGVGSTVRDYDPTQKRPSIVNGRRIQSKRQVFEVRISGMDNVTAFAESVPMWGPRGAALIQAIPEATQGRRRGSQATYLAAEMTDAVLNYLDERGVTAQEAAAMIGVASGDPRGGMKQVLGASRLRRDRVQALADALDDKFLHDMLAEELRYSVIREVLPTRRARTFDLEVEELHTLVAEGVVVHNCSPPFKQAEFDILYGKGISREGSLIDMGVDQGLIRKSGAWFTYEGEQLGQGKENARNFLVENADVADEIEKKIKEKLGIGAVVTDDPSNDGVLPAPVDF

[14] = molecular target: T4, Replicative DNA helicase DnaB (Mycobacterium tuberculosis, UniProt P9WMR3); experiment: DnaB intein splicing inhibitors, dose response, biochemical, cell-free fluorescence (AID 449749); format: functional
T4 sequence (P9WMR3 whole entry): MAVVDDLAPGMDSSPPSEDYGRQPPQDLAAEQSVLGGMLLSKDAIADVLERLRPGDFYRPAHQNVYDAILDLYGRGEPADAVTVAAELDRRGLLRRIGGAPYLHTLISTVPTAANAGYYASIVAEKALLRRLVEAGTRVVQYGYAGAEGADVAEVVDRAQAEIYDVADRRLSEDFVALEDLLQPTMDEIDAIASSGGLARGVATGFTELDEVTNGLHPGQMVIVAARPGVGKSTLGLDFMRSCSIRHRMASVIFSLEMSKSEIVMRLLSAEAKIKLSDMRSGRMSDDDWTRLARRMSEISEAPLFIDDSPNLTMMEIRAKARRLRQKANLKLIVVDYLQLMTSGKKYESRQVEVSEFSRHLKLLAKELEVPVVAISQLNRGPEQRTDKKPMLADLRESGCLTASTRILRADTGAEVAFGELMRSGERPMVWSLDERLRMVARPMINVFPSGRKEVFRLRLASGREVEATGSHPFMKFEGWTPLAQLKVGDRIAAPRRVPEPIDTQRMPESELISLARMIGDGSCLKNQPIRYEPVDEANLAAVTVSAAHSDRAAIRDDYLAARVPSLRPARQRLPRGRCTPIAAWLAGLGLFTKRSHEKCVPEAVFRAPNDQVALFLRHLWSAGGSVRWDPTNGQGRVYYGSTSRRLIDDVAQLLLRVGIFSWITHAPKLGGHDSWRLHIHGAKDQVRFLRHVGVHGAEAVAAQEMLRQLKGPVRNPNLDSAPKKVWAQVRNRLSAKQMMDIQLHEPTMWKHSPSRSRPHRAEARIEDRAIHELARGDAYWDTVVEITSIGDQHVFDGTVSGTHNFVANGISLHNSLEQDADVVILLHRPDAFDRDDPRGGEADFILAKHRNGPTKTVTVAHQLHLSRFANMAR

[15] = NIH3T3 cell viability loss – ATP luminescence, mouse fibroblasts, counter-screen, dose response (AID 2010); format: functional, cell-based;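 note: cells exposed to compound for about 90 hours before reading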
[16] = molecular target: Paired box protein Pax-8 (Homo sapiens, UniProt Q06710); experiment: PAX8 transcriptional activity inhibition in RMG-I – RMG-I cells, luciferase, cherry-pick, dose response (AID 687027); format: functional, cell-based;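 note: luciferase reporter driven by Pax8 target thyroperoxidase promoter measured by SteadyGlo luminescence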
[17] = A549 cell cytotoxicity, dose response, cytotoxicity control, plate reader, cherry-pick, antagonist series (AID 743412); format: functional, cell-based
[18] = blockers of bursicon-stimulated LGR2 cAMP reporter – cell-based, HEK293, CRE-luciferase reporter, cherry pick, set 2, dose response (AID 743343); format: functional;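 note: transfected cells were stimulated with diluted bursicon conditioned medium after compound addition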
[19] = system: HEK293; experiment: EBV LMP1 TES2 canonical NF-kB signalling blockers – cell-based, HEK293, luciferase, cherry-pick, dose response (AID 588343); format: functional; conditions: Homo sapiens
[20] = blockade of melanocortin 4 receptor signaling – cell-based, plate reader, cherry pick, counter-screen for LGR2 antagonist project, dose response (AID 743444); format: functional;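 note: transfected HEK 293 cells stimulated with alpha-MSH peptide; potency of inhibitors of the alpha-MSH evoked signal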
[21] = molecular target: Major prion protein (Homo sapiens, UniProt P04156); format: functional, cell-based
[22] = reduced cellular PGC1a acetyl-lysine signal – cell-based, cherry-picked samples, dose response (AID 720514); format: functional;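 note: potency may reflect raised or lowered acetylation signal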
[23] = cells
[24] = molecular target: T5, Oxysterols receptor LXR-beta (Homo sapiens, UniProt P55055); format: functional, cell-based;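 note: Cell-based luminescence dose-response assay of agonist activity at LXR, run as a confirmatory counterscreen to a daf-12 agonist screen; HEK293 cells with Gal4-LXR fusion and GAL4-driven luciferase reporter; agonist potency from rising luciferase signal of a Gal4-LXR reporter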
T5 sequence (P55055 whole entry): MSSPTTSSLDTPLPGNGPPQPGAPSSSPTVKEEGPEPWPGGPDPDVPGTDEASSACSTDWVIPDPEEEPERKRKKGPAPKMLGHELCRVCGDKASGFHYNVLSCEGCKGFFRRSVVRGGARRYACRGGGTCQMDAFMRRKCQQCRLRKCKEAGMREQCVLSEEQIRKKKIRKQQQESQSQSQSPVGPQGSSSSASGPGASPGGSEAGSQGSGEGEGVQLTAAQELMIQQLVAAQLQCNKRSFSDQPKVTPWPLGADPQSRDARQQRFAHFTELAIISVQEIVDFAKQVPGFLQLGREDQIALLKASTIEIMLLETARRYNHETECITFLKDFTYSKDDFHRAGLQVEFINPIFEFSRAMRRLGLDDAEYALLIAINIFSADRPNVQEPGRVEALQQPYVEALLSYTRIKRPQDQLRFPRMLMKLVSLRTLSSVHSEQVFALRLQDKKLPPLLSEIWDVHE

[25] = Luminescence-based cell-based high throughput dose response assay to identify activators of the DAF-12 from the parasite S. stercoralis (ssDAF-12).; format: functional
[26] = rise of 2N DNA cells, HeLa – IC50, dose response (AID 1117349); format: functional, cell-based
[27] = rise of 4N DNA cells, HeLa – IC50, dose response (AID 1117351); format: functional, cell-based

Chain of Luciferin 4-monooxygenase (P08659 whole entry): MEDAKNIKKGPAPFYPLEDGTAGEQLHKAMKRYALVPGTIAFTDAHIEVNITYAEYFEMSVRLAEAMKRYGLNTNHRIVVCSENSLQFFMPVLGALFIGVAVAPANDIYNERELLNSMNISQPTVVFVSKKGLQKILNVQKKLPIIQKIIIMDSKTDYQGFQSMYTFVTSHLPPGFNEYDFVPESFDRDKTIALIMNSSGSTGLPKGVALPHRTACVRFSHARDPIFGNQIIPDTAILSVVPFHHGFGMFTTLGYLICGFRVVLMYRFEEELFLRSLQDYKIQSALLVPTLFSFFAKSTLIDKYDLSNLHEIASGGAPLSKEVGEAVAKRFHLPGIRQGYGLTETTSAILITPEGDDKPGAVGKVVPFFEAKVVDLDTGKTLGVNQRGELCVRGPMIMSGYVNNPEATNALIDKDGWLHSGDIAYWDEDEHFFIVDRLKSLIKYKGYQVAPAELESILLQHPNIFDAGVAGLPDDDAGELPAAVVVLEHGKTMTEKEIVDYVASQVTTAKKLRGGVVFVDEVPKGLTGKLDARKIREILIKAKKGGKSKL
Chain of Paired box protein Pax-8 (Q06710 whole entry): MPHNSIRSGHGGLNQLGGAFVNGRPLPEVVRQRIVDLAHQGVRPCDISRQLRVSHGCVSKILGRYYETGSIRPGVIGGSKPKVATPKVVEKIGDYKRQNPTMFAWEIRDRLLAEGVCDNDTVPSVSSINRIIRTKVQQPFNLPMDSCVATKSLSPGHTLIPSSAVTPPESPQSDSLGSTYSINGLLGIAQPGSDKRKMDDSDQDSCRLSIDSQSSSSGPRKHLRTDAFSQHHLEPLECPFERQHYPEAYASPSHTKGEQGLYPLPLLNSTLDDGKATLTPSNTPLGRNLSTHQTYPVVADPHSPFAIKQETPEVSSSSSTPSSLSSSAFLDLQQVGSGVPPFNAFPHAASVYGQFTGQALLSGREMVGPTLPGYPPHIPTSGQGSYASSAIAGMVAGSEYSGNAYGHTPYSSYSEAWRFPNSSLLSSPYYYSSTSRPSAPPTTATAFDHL

## COc1ccc(C2CC(=O)Nc3sc(=N)c4c(N)c(C#N)c(N)nc4c32)cc1OC (stereo not drawn)
[1]
  EC50: > 112 µM (not active)
[2]
  EC50: 706 nM (active)
[3]
  IC50: 2.28 µM (active)
[4]
  EC50: > 29.9 µM (inactive)

## Cc1noc2ncnc(Sc3ccc(Br)cc3)c12
[5]
  EC50: 7.6 µM (inconclusive)
[6]
  EC50: 1.96 µM (active)
[7]
  AC50: 25.4 µM (active)
[8]
  AC50: > 52 µM (inactive)
[9]
  IC50: 11.6 µM (active)
[10]
  CC50: > 40 µM (active)
[11]
  EC50: 6.64 µM (active)
[12]
  EC50: > 38 µM (not active)
[13]
  EC50: 16.2 µM (active)
[14]
  AC50: 4.02 µM (active)
[15]
  EC50: > 60 µM (inconclusive)

## COc1ccc(-c2csc3ncnc(Sc4nnnn4C)c23)cc1
[8]
  AC50: 19.8 µM (active)
[16]
  AC50: 4.92 µM (active)
[17]
  AC50: 26.8 µM (active)
[18]
  AC50: 17.8 µM (active)
[19]
  AC50: 8.04 µM (active)
[20]
  AC50: 20.8 µM (active)

## CC(Sc1ccc2ccccc2n1)C(=O)O (stereo not drawn)
[21]
  IC50: 1.88 µM (active)

## Cc1cc2c(c(/C=C/C(=O)c3ccccc3)c1)OC1(C=C2)Oc2ccccc2C(=O)N1C (stereo not drawn)
[22]
  AC50: 2.26 µM (active)
[11]
  EC50: 3.56 µM (active)

## O=C(NCCO)c1nsnc1NCCCl
[3]
  IC50: > 29.9 µM (inactive)
[4]
  EC50: > 29.9 µM (inactive)

## O=C(COc1ccc2ccccc2c1)Nc1ccncc1
[9]
  IC50: 6.95 µM (active)
[3]
  IC50: 1.77 µM (active)
[4]
  EC50: > 29.9 µM (inactive)

## COc1ccc(-c2cc3nc(NCc4ccc(N(C)C)cc4)n(C)c(=O)c3s2)cc1OC
[7]
  AC50: 45.2 µM (active)
[8]
  AC50: 3.28 µM (active)
[17]
  AC50: 36 µM (active)
[18]
  AC50: 31.3 µM (active)
[20]
  AC50: 39 µM (active)

## C[C@@H]1CN([C@H](C)CO)C(=O)CCCn2nncc2CO[C@H]1CN(C)C(=O)Nc1cccc2ccccc12
[7]
  AC50: > 52 µM (inactive)
[20]
  AC50: 34.8 µM (active)

## Nc1ccccc1-n1nc2ccc3ccccc3c2n1
[23]
  EC50: > 67.5 µM (inactive)
[24]
  EC50: > 67.5 µM (inactive)
[25]
  IC50: > 67.5 µM (inactive)

## O=C(Cc1ccccn1)NCC[C@H]1CC[C@@H](NC(=O)Nc2ccc(C(F)(F)F)cc2)[C@@H](CO)O1
[22]
  AC50: 34.6 µM (active)

## C[C@@H]1CN([C@@H](C)CO)S(=O)(=O)c2ccc(-c3ccc(C#N)cc3)cc2O[C@H]1CN(C)C(=O)CN(C)C
[22]
  AC50: 26.5 µM (active)

## [O-][n+]1ccccc1SSc1cccc[n+]1[O-] [DIPYRITHIONE]
[26]
  IC50: > 10 µM (inactive)
[27]
  IC50: > 10 µM (inactive)
